# Source: US20240299352A1, “COMBINATION THERAPIES WITH SETD2 INHIBITORS” (Epizyme, Inc., priority 2021, published 2024)
# What was measured:
# DB = assay: Co-treatment combination study with Cpd. No. 15, CellTiter-Glo viability, Loewe Volume; format: cell-based; settings: in combination with Cpd. No. 15, seven days, DLBCL cell line DB
# Procedure: (§1) Mantle cell lymphoma (MCL) and diffuse large B-cell lymphoma (DLBCL) cell line cultures in log-linear growth rate were treated with combinations of Cpd. No. 15 and combination partners according to a co-treatment model. […] No. 15 and the combination partner. […] Each combination was tested in quadruplicate wells. The final concentration of DMSO (vehicle) in the assay was 0.1% v/v. Fifty microliters of cell line suspension were directly dispensed to the assay-ready plates with an automated multichannel dispenser on to 384-well assay-ready plates. Assay plates were incubated for seven days unless otherwise indicated in a humidified atmosphere of 5% CO2 at 37° C. Quantification of the effect of single agents or combinations on cell viability was performed through measurement of cellular adenosine triphosphate (ATP) using a CellTiter-Glo® (Promega, Madison, WI) Luminescent Cell Viability Assay. Luminescence was detected using a SpectraMax M5 microplate reader (Molecular Devices, Sunnyvale, CA). Concentration response plots were generated in GraphPad Prism version 7.0 for Windows, GraphPad Software, (La Jolla, California) and curves fitted to a four-parameter logistic model with variable slope. Percent of inhibition was calculated at each treatment concentration.
# DOHH2 = assay: as above; format: cell-based; settings: in combination with Cpd. No. 15, seven days, DLBCL cell line DOHH2
# Procedure: as §1
# GRANTA519 = assay: as above; format: cell-based; settings: in combination with Cpd. No. 15, seven days, mantle cell lymphoma cell line GRANTA519 (ACC 342)
# Procedure: as §1
# HT = assay: as above; format: cell-based; settings: in combination with Cpd. No. 15, seven days, DLBCL cell line HT
# Procedure: as §1
# JEKO1 = assay: as above; format: cell-based; settings: in combination with Cpd. No. 15, seven days, mantle cell lymphoma cell line JEKO1 (CRL-3006)
# Procedure: as §1
# JVM2 = assay: as above; format: cell-based; settings: in combination with Cpd. No. 15, seven days, mantle cell lymphoma cell line JVM2 (CRL-3002)
# Procedure: as §1
# KARPAS422 = assay: as above; format: cell-based; settings: in combination with Cpd. No. 15, seven days, DLBCL cell line KARPAS422
# Procedure: as §1
# MAVER1 = assay: as above; format: cell-based; settings: in combination with Cpd. No. 15, seven days, mantle cell lymphoma cell line MAVER1 (CRL-3008)
# Procedure: as §1
# MINO = assay: as above; format: cell-based; settings: in combination with Cpd. No. 15, seven days, mantle cell lymphoma cell line MINO (CRL-3000)
# Procedure: as §1
# Pfeiffer = assay: as above; format: cell-based; settings: in combination with Cpd. No. 15, seven days, DLBCL cell line Pfeiffer
# Procedure: as §1
# REC1 = assay: as above; format: cell-based; settings: in combination with Cpd. No. 15, seven days, mantle cell lymphoma cell line REC1 (CRL-3004)
# Procedure: as §1
# RL = assay: as above; format: cell-based; settings: in combination with Cpd. No. 15; 6-Day Cotreatment; DLBCL cell line RL
# Procedure: as §1
# SUDHL10 = assay: as above; format: cell-based; settings: in combination with Cpd. No. 15; 5-Day Cotreatment; DLBCL cell line SUDHL10
# Procedure: as §1
# SUDHL2 = assay: as above; format: cell-based; settings: in combination with Cpd. No. 15, seven days, DLBCL cell line SUDHL2
# Procedure: as §1
# SUDHL4 = assay: as above; format: cell-based; settings: in combination with Cpd. No. 15, seven days, DLBCL cell line SUDHL4
# Procedure: as §1
# SUDHL5 = assay: as above; format: cell-based; settings: in combination with Cpd. No. 15, seven days, DLBCL cell line SUDHL5
# Procedure: as §1
# SUDHL6 = assay: as above; format: cell-based; settings: in combination with Cpd. No. 15, seven days, DLBCL cell line SUDHL6
# Procedure: as §1
# SUDHL8 = assay: as above; format: cell-based; settings: in combination with Cpd. No. 15, seven days, DLBCL cell line SUDHL8
# Procedure: as §1
# TOLEDO = assay: as above; format: cell-based; settings: in combination with Cpd. No. 15, seven days, DLBCL cell line TOLEDO
# Procedure: as §1
# WILL2 = assay: as above; format: cell-based; settings: in combination with Cpd. No. 15, seven days, DLBCL cell line WILL2
# Procedure: as §1
# WSUDLCL2 = assay: as above; format: cell-based; settings: in combination with Cpd. No. 15, seven days, DLBCL cell line WSUDLCL2
# Procedure: as §1
# WSUNHL = assay: as above; format: cell-based; settings: in combination with Cpd. No. 15, seven days, DLBCL cell line WSUNHL
# Procedure: as §1
# Z138 = assay: as above; format: cell-based; settings: in combination with Cpd. No. 15, seven days, mantle cell lymphoma cell line Z138 (CRL-3001)
# Procedure: as §1
# [1] = system: diffuse large B-cell lymphoma (DLBCL) cell lines; assay: Co-treatment combination study with Cpd. No. 15, further cell lines (Table F), CellTiter-Glo viability, Loewe Volume; format: cell-based; settings: for Combination effect with Cpd. No. 15 (Loewe Volume class), Ri1: co-treatment with Cpd. No. 15, cell line Ri1 (Cat. No. 96090512-1VL); for Combination effect with Cpd. No. 15 (Loewe Volume class), TMD8: co-treatment with Cpd. No. 15, cell line TMD8 (Cat. No. M-097); for Combination effect with Cpd. No. 15 (Loewe Volume class), WILL1: co-treatment with Cpd. No. 15, cell line WILL1 (Cat. No. ACC 651)
# Procedure: as §1
# [2] = system: diffuse large B-cell lymphoma (DLBCL) cell lines; assay: Pre-treatment model combination study with Cpd. No. 15 (7 days pre-treatment, then combination; Table G), CellTiter-Glo viability, Loewe Volume; settings: 7 days pre-treatment with Cpd. No. 15, then combination
Structure (SMILES),Combination effect (Loewe Volume) DB (DB),Combination effect (Loewe Volume) DOHH2 (DOHH2),Combination effect (Loewe Volume) GRANTA519 (GRANTA519),Combination effect (Loewe Volume) HT (HT),Combination effect (Loewe Volume) JEKO1 (JEKO1),Combination effect (Loewe Volume) JVM2 (JVM2),Combination effect (Loewe Volume) KARPAS422 (KARPAS422),Combination effect (Loewe Volume) MAVER1 (MAVER1),Combination effect (Loewe Volume) Pfeiffer (Pfeiffer),Combination effect (Loewe Volume) RL (RL),Combination effect (Loewe Volume) SUDHL10 (SUDHL10),Combination effect (Loewe Volume) SUDHL2 (SUDHL2),Combination effect (Loewe Volume) SUDHL4 (SUDHL4),Combination effect (Loewe Volume) SUDHL5 (SUDHL5),Combination effect (Loewe Volume) SUDHL6 (SUDHL6),Combination effect (Loewe Volume) SUDHL8 (SUDHL8),Combination effect (Loewe Volume) TOLEDO (TOLEDO),Combination effect (Loewe Volume) WILL2 (WILL2),Combination effect (Loewe Volume) WSUDLCL2 (WSUDLCL2),Combination effect (Loewe Volume) WSUNHL (WSUNHL),further results
"C=CC(=O)N1CCC[C@@H](n2nc(-c3ccc(Oc4ccccc4)cc3)c3c(N)ncnc32)C1 [Ibrutinib, ibrutinib]",No Effect,Synergy (VLoewe>1: synergy),Additivity (between 1 and −1: additivity),No Effect,Synergy (VLoewe>1: synergy),Additivity (between 1 and −1: additivity),No Effect,Synergy (VLoewe>1: synergy),No Effect,Additivity (between 1 and −1: additivity),No Effect,No Effect,Synergy (VLoewe>1: synergy),No Effect,Synergy (VLoewe>1: synergy),No Effect,No Effect,Additivity (between 1 and −1: additivity),Additivity (between 1 and −1: additivity),Additivity (between 1 and −1: additivity),Combination effect (Loewe Volume) MINO (MINO): Synergy (VLoewe>1: synergy); Combination effect (Loewe Volume) REC1 (REC1): Additivity (between 1 and −1: additivity); Combination effect (Loewe Volume) Z138 (Z138): No Effect
"Nc1ccn([C@@H]2O[C@H](CO)[C@@H](O)C2(F)F)c(=O)n1 [Gemcitabine, gemcitabine]",Additivity (between 1 and −1: additivity),Additivity (between 1 and −1: additivity),–,Additivity (between 1 and −1: additivity),–,–,Additivity (between 1 and −1: additivity),–,Additivity (between 1 and −1: additivity),Additivity (between 1 and −1: additivity),Additivity (between 1 and −1: additivity),Additivity (between 1 and −1: additivity),Additivity (between 1 and −1: additivity),Additivity (between 1 and −1: additivity),Additivity (between 1 and −1: additivity),Additivity (between 1 and −1: additivity),Additivity (between 1 and −1: additivity),Additivity (between 1 and −1: additivity),Additivity (between 1 and −1: additivity),Additivity (between 1 and −1: additivity),"Combination effect with Cpd. No. 15 (Loewe Volume class), Ri1 [1]: Additivity (between 1 and −1: additivity); Combination effect with Cpd. No. 15 (Loewe Volume class), TMD8 [1]: Additivity (between 1 and −1: additivity); Combination effect with Cpd. No. 15 (Loewe Volume class), WILL1 [1]: Additivity (between 1 and −1: additivity); Combination effect with Cpd. No. 15 (Loewe Volume class), Farage ([2]; cell line Farage (Cat. No. CRL-2630)): Additivity (between 1 and −1: additivity); Combination effect with Cpd. No. 15 (Loewe Volume class), HT ([2]; cell line HT (Cat. No. CRL-2631)): Additivity (between 1 and −1: additivity); Combination effect with Cpd. No. 15 (Loewe Volume class), OCILY7 ([2]; cell line OCILY7 (Cat. No. ACC 688)): Additivity (between 1 and −1: additivity); Combination effect with Cpd. No. 15 (Loewe Volume class), SUDHL4 ([2]; cell line SUDHL4 (Cat. No. ACC 495)): Additivity (between 1 and −1: additivity); Combination effect with Cpd. No. 15 (Loewe Volume class), WILL2 ([2]; cell line WILL2 (Cat. No. ACC 652)): Additivity (between 1 and −1: additivity)"
"COc1cccc2c1C(=O)c1c(O)c3c(c(O)c1C2=O)C[C@@](O)(C(=O)CO)C[C@@H]3O[C@H]1C[C@H](N)[C@H](O)[C@H](C)O1 [Doxorubicin, doxorubicin]",Additivity (between 1 and −1: additivity),Additivity (between 1 and −1: additivity),Additivity (between 1 and −1: additivity),Additivity (between 1 and −1: additivity),Additivity (between 1 and −1: additivity),Additivity (between 1 and −1: additivity),Additivity (between 1 and −1: additivity),Additivity (between 1 and −1: additivity),Additivity (between 1 and −1: additivity),Additivity (between 1 and −1: additivity),Additivity (between 1 and −1: additivity),Additivity (between 1 and −1: additivity),Additivity (between 1 and −1: additivity),Additivity (between 1 and −1: additivity),Synergy (VLoewe>1: synergy),Additivity (between 1 and −1: additivity),Synergy (VLoewe>1: synergy),Additivity (between 1 and −1: additivity),Additivity (between 1 and −1: additivity),Additivity (between 1 and −1: additivity),"Combination effect (Loewe Volume) MINO (MINO): Additivity (between 1 and −1: additivity); Combination effect (Loewe Volume) REC1 (REC1): Additivity (between 1 and −1: additivity); Combination effect (Loewe Volume) Z138 (Z138): Additivity (between 1 and −1: additivity); Combination effect with Cpd. No. 15 (Loewe Volume class), Ri1 [1]: Synergy (VLoewe>1: synergy); Combination effect with Cpd. No. 15 (Loewe Volume class), TMD8 [1]: Additivity (between 1 and −1: additivity); Combination effect with Cpd. No. 15 (Loewe Volume class), WILL1 [1]: Additivity (between 1 and −1: additivity)"
